“Also recorded” adds a separate entry of the source. Like-named read-outs stand apart in the source and are kept apart here.
What was measured:
[1] = tested on: succinate dehydrogenase (SDHA); assay: Western blot, mouse liver, SDHA; format: in vivo; details: HFD+NCT vs HFD
Experimental: Mouse liver extracts were prepared by incubation in RIPA buffer (Invitrogen) containing protease inhibitors (Calbiochem, San Diego, CA). Protein was quantified by BCA assay (Thermo Scientific). Protein ([…] for cytochrome C) was separated on 12% or 16% Tri-Glycine gels (Invitrogen) and transferred to Immobilon P membrane (0.2 μm pore size, Millipore). After 1 hour in phosphate-buffered saline-Tween (PBST) with 3% milk, membranes were incubated with antibodies to PPARGC1A(PGC1α) (Cat #NBP1-04676, Novus, 1:1000), SDHA XP (Cat #11998, Cell Signaling 1:1000), or Cytochrome C (Cat #4280, Cell Signaling 1:500), followed by secondary antibody conjugated to horseradish peroxidase (1:5000, Jackson Immune or Cell Signaling). […] After detection, membrane was incubated with Ponceau S solution (Sigma) for 1 hr for normalization to loaded protein.

[2] = tested on: Parp1 mRNA; assay: qPCR mouse liver, Parp1 mRNA; format: in vivo; details: HFD+NCT vs HFD
Experimental: (§1) Total RNA was isolated from liver tissues and primary human hepatocytes using Trizol (Invitrogen). cDNA was amplified using 3 μg of total RNA using qScript cDNA SuperMix (Quanta BioSciences, Beverly, MA, USA). Quantitative real time PCR (RT-PCR) analysis was performed using SYBR® Select Master Mix (Applied Biosystems) and an ABI 7900HT thermal cycler (Applied Biosystems, Thermo Fisher Scientific). Ct values were normalized to 18s rRNA and are expressed as fold change over samples from mice fed NC or cultured human hepatocytes without NCT.

[3] = Subcutaneous delivery of NCT to DIO mice; format: in vivo, mouse; details: 2 weeks
Experimental: (§2) 12-week-old C57BL/6J DIO male mice were purchased from Jackson laboratory (cat #380050) and were fed with high fat diet (Research Diets, cat #D12492 60 kcal % fat). […] 14 week old mice were injected subcutaneously using sterile insulin syringes filled with DMSO or NCT (200 mg/kg of mouse body weight) bid for 2 weeks. For oral gavage, 14-week-old C57BL/6J DIO male mice were fed by oral gavage using a feeding needle attached to a sterile 1 ml syringe filled with 200 μL of methyl cellulose (MC, vehicle control) or 200 μL of NCT (200 mg/kg) dissolved in methyl cellulose twice a day for 2 weeks. […] For analysis all mice were sacrificed after 2 weeks of treatment.

[4] = tested on: Sirt3 mRNA; assay: qPCR mouse liver, Sirtuin3 mRNA; format: in vivo; details: HFD+NCT vs HFD
Experimental: as §1

[5] = Oral gavage delivery of NCT to DIO mice; format: in vivo, mouse
Experimental: as §2

[6] = tested on: Sirtuin1 mRNA; assay: qPCR primary human hepatocytes, Sirtuin1 mRNA; format: cell-based; details: NCT 5, 15, 40 μM
Experimental: (§3) Experiments with primary human hepatocytes were performed by CN-Bio (Cambridge, UK). Briefly, primary human hepatocytes (PHHs), human Kupffer cells (HKs) and human stellate cells (HSCs) were seeded onto CN-Bio's PhysioMimix LC12 MPS culture plates at 6×10^5 cells for PHHs and 6×10^4 cells for HKs and HSCs in 1.6 ml of CN-Bio's HEP-lean media with 5% FCS. Throughout the experiment the cells were maintained at a flow rate of 1 μl/s. After 24 hours (Day 1) of seeding, the media was changed to HEP-lean media and the cells were incubated until day 4 to allow the cells to form microtissues. At day 4 post seeding, media was changed to HEP-fat media and treated with DMSO or NCT (5, 15, 40 μM). Media was replaced on days 6 and 8. Cells were harvested on day 10 for RNA extraction and culture media was collected for ELISA analysis.
as §1

[7] = tested on: Sirtuin3 mRNA; assay: qPCR primary human hepatocytes, Sirtuin3 mRNA; format: cell-based; details: NCT 5, 15, 40 μM
Experimental: as §3, §1

[8] = molecular target: T1, HNF4α (Homo sapiens, UniProt P41235); assay: Cell-based human insulin promoter reporter assay sensitive to HNF4α activity
T1 sequence (P41235 1-474): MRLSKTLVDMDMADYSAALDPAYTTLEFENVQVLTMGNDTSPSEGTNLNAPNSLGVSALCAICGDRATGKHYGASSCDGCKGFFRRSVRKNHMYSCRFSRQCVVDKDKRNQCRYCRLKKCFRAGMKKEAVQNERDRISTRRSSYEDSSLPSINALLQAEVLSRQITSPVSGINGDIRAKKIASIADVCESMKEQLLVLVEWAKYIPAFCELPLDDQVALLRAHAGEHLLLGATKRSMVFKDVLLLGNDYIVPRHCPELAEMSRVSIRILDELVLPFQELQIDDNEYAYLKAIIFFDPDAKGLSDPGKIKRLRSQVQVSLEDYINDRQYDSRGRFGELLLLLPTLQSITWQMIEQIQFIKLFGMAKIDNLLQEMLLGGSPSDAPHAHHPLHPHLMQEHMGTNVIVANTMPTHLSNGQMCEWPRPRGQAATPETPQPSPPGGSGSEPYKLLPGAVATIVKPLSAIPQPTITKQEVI
From the text: HNF4α is a nuclear receptor transcription factor that controls the expression of downstream genes that are important in multiple aspects of cellular metabolism. The classical view of HNF4α has been that its ligand binding pocket (LBP) is constitutively occupied by a fatty acid that plays a structural rather than regulatory role. However, it has been shown recently that the fatty acids in the HNF4α LBP are exchangeable in the context of full length HNF4α, particularly inside the cell. […] Using the assay in high-throughput screening, it was discovered HNF4α antagonists and more recently agonists. […] Previously, it was shown that intraperitoneal (IP) administration of NCT reversed hepatic steatosis in obese mice fed a high fat diet through a previously unsuspected pathway involving regulation by HNF4α of dihydroceramide synthesis.

[9] = tested on: IL-6 mRNA; assay: qPCR primary human hepatocytes, IL-6 mRNA; format: cell-based; details: NCT 5, 15, 40 μM
Experimental: as §3, §1

[10] = tested on: Parp2 mRNA; assay: qPCR mouse liver, Parp2 mRNA; format: in vivo; details: HFD+NCT vs HFD
Experimental: as §1

[11] = tested on: citrate synthase; assay: Citrate synthase activity in liver homogenate; format: in vivo, mouse; details: HFD+NCT vs HFD
Experimental: Citrate synthase activity in liver homogenate was measured according to manufacturer's instructions using a calorimetry based MitoCheck Citrate Synthase Activity Assay Kit (Cat #701040, Cayman Chemicals, USA).

Structure (SMILES): O=C(/C=C/c1ccc(O)c(O)c1)NCCc1ccc(O)cc1 [NCT, N-transcaffeoyltyramine]
- hepatic succinate dehydrogenase protein level (HFD-induced decrease) [1]: reversed
- Parp1 mRNA level [2]: not modulated
- liver color after subcutaneous NCT ([3]; 200 mg/kg bid, vs DMSO): No difference in liver color
- outcome of subcutaneous delivery ([3]; 200 mg/kg, 2 doses per day, subcutaneous): compound precipitation
- Sirt3 mRNA in mouse liver (effect of HFD) [4]: almost completely reversed
- liver color after oral gavage NCT ([5]; 200 mg/kg bid, 2 weeks, vs methyl cellulose): No difference in liver color
- outcome of oral gavage delivery ([5]; 200 mg/kg in methyl cellulose, 2 doses per day, 2 weeks): compound precipitation
- NCT compound level in serum and stool ([5]; following oral gavage 200 mg/kg bid): present in stool but not serum
- Sirtuin1 mRNA in primary human hepatocytes [6]: significant effect
- Sirtuin3 mRNA in primary human hepatocytes [7]: significant effect
- HNF4α agonist activity [8]: strong HNF4α agonists
- HNF4α agonist activity ([8]; listed as N-trans caffeoyltyramine): potent agonist
- IL-6 mRNA in cultured human hepatocytes [9]: reduced
- body weight less than mice fed HFD (HFD+NCT (4000 ppm NCT in chow, approx. 400 mg/kg/d) vs HFD, end of experiment at 10 weeks): ~10 gm
- week at which lower body weight became evident (HFD+NCT vs HFD): 5 week
- difference in body weight (HFD+NCT vs HFD, 10 weeks): 35-40%
- liver redness (HFD+NCT vs HFD, 10 weeks): redder livers
- obesity (appearance) (HFD+NCT vs HFD, 10 weeks): markedly less obese
- epididymal fat pad weight (HFD+NCT vs HFD, end of study, normalized to body weight): no change
- liver weight (HFD+NCT vs HFD, normalized to body weight): lower liver weight
- liver size (HFD+NCT vs HFD, photographs): reduction of liver size
- physical activity or other behaviors (mouse, in vivo): no discernible difference
- Parp2 mRNA level [10]: not modulated
- citrate synthase activity (HFD-induced decrease) [11]: reversed; also recorded: substantial reversal

From patent US20240374546A1, “USES AND METHODS FOR PROMOTING INCREASED MITOCHONDRIAL MASS AND FUNCTION” (Brightseed, Inc., priority 2022, published 2024)
